This is an account of results in article PMC10287669, “[1,2,4]triazolo[3,4-b][1,3,4]thiadiazole derivatives as new therapeutic candidates against urease positive microorganisms: design, synthesis, pharmacological evaluations, and in silico studies” (Scientific Reports, 2023).

Values after ≈ are worked out from the molar mass of the structure shown. Read-outs that look alike come from different tables or passages of the source.

Data set [1] has as its system Cryptococcus neoformans (H99). In words: In vitro antimicrobial activity, CLSI microbroth dilution (yeast). Format: cell-based. The procedure:
The antimicrobial activities of all derivatives against C. neoformans (H99), and clinical isolate of P. mirabilisas urease positive microorganism, were tested as recommended by the Clinical and Laboratory Standards Institute (CLSI) (M07-A9 for bacteria; M27-A3 for yeasts). The compounds were diluted, and stock solutions of 20 mg/mL in DMSO were prepared. Mueller–Hinton Broth (HiMedia) and RPMI-1640 (Sigma) were prepared as recommended for antimicrobial susceptibility testing of bacterial and fungal strains, respectively. Two-fold dilutions were made in the range of 1–512 μg/mL for tested compounds. The microbroth dilution test was accomplished using a 96-well microtiter plate containing growth control (drug free wellls) and sterility control (only broth media). The antimicrobial susceptibility test was accomplished by adding a cell suspension adjusted to the 0.5 McFarland standard (1–2 × 10^8 CFU/mL for bacterial strains; 1–5 × 10^6 cells/mL for yeast) to different concentrations of tested compounds. […] All experiments were performed in duplicates.
(In general: Broth dilution looks for growth in wells or tubes with falling amounts of substance.)

A further data set relates to C. neoformans (H99). In words: Anti-ureolytic activity, colorimetric urea broth microdilution. In kind it is cell-based, Cryptococcus neoformans. The following applies: C. neoformans, read after three days, means ± SD of 3 independent experiments; for IC50: Cryptococcus neoformans, 72 h, read-out: urease inhibitory activity IC50 (µg/mL) ± SD. The procedure: (§1) The colorimetric microdilution technique using urea broth media (Merck) was used to examine the ureolytic activity of C. neoformans (H99), and clinical isolate of P. mirabilis treated with tested substances (supplemented with glucose; pH = 6 for C. neoformans). Compounds in the concentration range of 1 to 512 μg/mL were exposed to ureolytic microorganisms, and the color of the medium was evaluated visually and spectroscopically at 560 nm after three days for C. neoformans and 24 h for P. mirabilis. The positive control, which included ureolytic bacteria but no drugs, changed color from yellow to dark pink or magenta. This shifts, allowing the determination of the inhibitory activity of compounds against the urease activity of organisms even without a microliter plate reader[45],[46].

Another data set relates to P. mirabilis. The description is as above. Format: cell-based, Proteus mirabilis. The following applies: read after 24 h, means ± SD of 3 independent experiments; for IC50: Proteus mirabilis, read-out: urease inhibitory activity IC50 (µg/mL) ± SD. The procedure: as §1
Another data set deals with Jack bean urease (Canavalia ensiformis, UniProt P07374). In words: Screening of urease inhibitory activities (indophenol method, enzymatic). In kind it is biochemical. The procedure: Urease inhibition effects of the synthesized compounds were determined according to the previously reported procedure[37]–[39]. Briefly, 100 μL of the synthesized compounds at different concentrations was added to 850 μL of urea as substrate and 50 μL urease (3 mg/mL) in phosphate buffer, pH = 7.4). After 30 min, to 100 μL of the incubated solution, 500 μL of solution I (5.0 g phenol and 25.0 mg sodium nitroprusside in 500 mL water) was added, followed by the addition of 500 μL of solution II (2.5 g sodium hydroxide, 4.2 mL sodium hypochlorite, and 5% chlorine in 500 mL water) which was further incubated at 37 °C for 30 min. The absorbance of blue-colored indophenol of each cell is related to the percentage of enzyme inhibition using the following equation at 625 nm. The IC50 values for all synthesized compounds were calculated using GraphPad Prism software (GraphPad Software, Inc., San Diego, CA).
Chain of Jack bean urease (P07374 whole entry, looked up): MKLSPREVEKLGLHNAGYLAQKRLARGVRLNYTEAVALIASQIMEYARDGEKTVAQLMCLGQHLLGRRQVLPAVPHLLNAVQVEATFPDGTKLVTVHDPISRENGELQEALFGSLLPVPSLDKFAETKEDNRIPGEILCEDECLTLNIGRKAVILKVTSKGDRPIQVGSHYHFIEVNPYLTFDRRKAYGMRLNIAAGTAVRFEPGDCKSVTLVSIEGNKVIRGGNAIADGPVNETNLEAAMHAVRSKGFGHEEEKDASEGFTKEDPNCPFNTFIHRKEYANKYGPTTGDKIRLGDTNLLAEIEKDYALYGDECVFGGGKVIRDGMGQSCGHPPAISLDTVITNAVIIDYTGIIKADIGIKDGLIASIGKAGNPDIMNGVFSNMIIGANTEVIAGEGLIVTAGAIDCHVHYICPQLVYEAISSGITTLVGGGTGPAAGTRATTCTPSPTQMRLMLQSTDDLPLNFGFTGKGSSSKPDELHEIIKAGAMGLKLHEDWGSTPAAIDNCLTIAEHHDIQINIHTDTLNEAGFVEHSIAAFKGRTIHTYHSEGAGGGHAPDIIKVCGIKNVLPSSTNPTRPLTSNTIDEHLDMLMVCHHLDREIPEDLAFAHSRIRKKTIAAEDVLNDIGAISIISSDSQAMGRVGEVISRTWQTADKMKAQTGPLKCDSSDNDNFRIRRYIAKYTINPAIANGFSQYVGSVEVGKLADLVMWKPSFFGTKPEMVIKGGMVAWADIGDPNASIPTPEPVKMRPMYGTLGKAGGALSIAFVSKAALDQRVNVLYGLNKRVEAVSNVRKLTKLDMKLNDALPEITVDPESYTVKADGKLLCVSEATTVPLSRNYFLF

For a further data set, the system named is Proteus mirabilis. In words: In vitro antimicrobial activity, CLSI microbroth dilution (bacteria). Format: cell-based. The following applies: clinical isolate. Here is the method:
M27-A3 for yeasts). The compounds were diluted, and stock solutions of 20 mg/mL in DMSO were prepared. Mueller-Hinton Broth (HiMedia) and RPMI-1640 (Sigma) were prepared as recommended for antimicrobial susceptibility testing of bacterial and fungal strains, respectively. Two-fold dilutions were made in the range of 1-512 μg/mL for tested compounds. […] All experiments were performed in duplicates.

The mark [2] stands for this setting: urease enzymatic assessment, mean ± SD of three independent experiments, read-out: IC50 (µM) ± SD.

The MIC is the least concentration at which growth counts as inhibited. Broadly, the melting point is the temperature of the solid-liquid transition. Turning to `Fc1ccccc1CSc1nn2c(-c3ccccc3)nnc2s1` [Compound 6b, 6-((2-fluorobenzyl)thio)-3-phenyl-[1,2,4]triazolo[3,4-b][1,3,4]thiadiazole], the melting point was in the range of 190 to 192 °C. Also, the MIC in data set [1] (read-out: MIC) is > 256 µg/mL. In addition, the IC50 in the data set on C. neoformans (H99) was found to be 111 ± 7.4 µg/mL (≈ 324 µM). Moreover, the IC50 with P. mirabilis came to 87.3 ± 4.9 µg/mL (≈ 255 µM). This compound displayed an IC50 at Jack bean urease of 1.51 ± 0.21 µM. For the same compound, the MIC in the data set on Proteus mirabilis (read-out: MIC) was found to be 256 µg/mL (≈ 748 µM).
With `Fc1cccc(CSc2nn3c(-c4ccccc4)nnc3s2)c1` [Compound 6c, 6-((3-fluorobenzyl)thio)-3-phenyl-[1,2,4]triazolo[3,4-b][1,3,4]thiadiazole], the melting point lay within 216 to 218 °C. The MIC in data set [1] (read-out: MIC) was > 256 µg/mL. For the same compound, in the data set on C. neoformans (H99), the IC50 worked out at 117 ± 6.4 µg/mL (≈ 343 µM). Further, the IC50 in the data set on P. mirabilis stood at 79.8 ± 3.5 µg/mL (≈ 233 µM). The same compound returned an IC50 against Jack bean urease of 1.4 ± 0.29 µM. Besides, the MIC in the data set on Proteus mirabilis (read-out: MIC) came out at 256 µg/mL (≈ 748 µM).
Regarding `Fc1ccc(CSc2nn3c(-c4ccccc4)nnc3s2)cc1` [Compound 6d, 6-((4-fluorobenzyl)thio)-3-phenyl-[1,2,4]triazolo[3,4-b][1,3,4]thiadiazole], the melting point was 199 to 201 °C. In addition, the MIC in data set [1] (read-out: MIC) was > 256 µg/mL. In the data set on C. neoformans (H99), the IC50 came to 118 ± 8.6 µg/mL (≈ 344 µM). Further, the IC50 with P. mirabilis turned out to be 91 ± 6.4 µg/mL (≈ 266 µM). This compound displayed an IC50 against Jack bean urease of 1.01 ± 0.13 µM. Also, in the data set on Proteus mirabilis (read-out: MIC), the MIC was 256 µg/mL (≈ 748 µM).
In the case of `Clc1ccccc1CSc1nn2c(-c3ccccc3)nnc2s1` [Compound 6e, 6-((2-chlorobenzyl)thio)-3-phenyl-[1,2,4]triazolo[3,4-b][1,3,4]thiadiazole], the melting point was 224 to 226 °C. Besides, the “MIC (µg/mL)” value in data set [1] is “almost inactive”. Further, in data set [1] (read-out: MIC), the MIC was > 256 µg/mL. For the same compound, the IC50 in the data set with C. neoformans (H99) was 102 ± 3.3 µg/mL (≈ 284 µM). The IC50 with P. mirabilis was 93.3 ± 5.2 µg/mL (≈ 260 µM). In addition, the IC50 against Jack bean urease is 8.32 ± 1.21 µM. The MIC in the data set on Proteus mirabilis (read-out: MIC) worked out at 256 µg/mL (≈ 713 µM).
For the compound `Brc1ccc(CSc2nn3c(-c4ccccc4)nnc3s2)cc1` [Compound 6k, 6-((4-bromobenzyl)thio)-3-phenyl-[1,2,4]triazolo[3,4-b][1,3,4]thiadiazole], the “MIC” value is reported as > 256 µg/mL in data set [1] and 256 µg/mL (≈ 635 µM) against Proteus mirabilis. Besides, the “urease inhibitory activity IC50 (µg/mL) ± SD” value with C. neoformans (H99) amounted to 118.7 ± 5.5 µg/mL; in the data set on P. mirabilis, 113.7 ± 4.6 µg/mL. For the same compound, the IC50 on Jack bean urease (setting [2]) turned out to be 1.53 ± 0.17 µM.
For `O=[N+]([O-])c1ccc(CSc2nn3c(-c4ccccc4)nnc3s2)cc1` [Compound 6l, 6-((4-nitrobenzyl)thio)-3-phenyl-[1,2,4]triazolo[3,4-b][1,3,4]thiadiazole], the results for the “MIC” value (in data set [1]; in the data set on Proteus mirabilis) were > 256 µg/mL and 256 µg/mL (≈ 693 µM), respectively. In addition, the “urease inhibitory activity IC50 (µg/mL) ± SD” value with C. neoformans (H99) was 113.6 ± 5.4 µg/mL; in the data set on P. mirabilis, 91.8 ± 7.0 µg/mL. Moreover, the IC50 at Jack bean urease (setting [2]) came to 2.22 ± 0.18 µM.
For `Cc1ccccc1CSc1nn2c(-c3ccccc3)nnc2s1` [Compound 6m, 6-((2-methylbenzyl)thio)-3-phenyl-[1,2,4]triazolo[3,4-b][1,3,4]thiadiazole], in that order: > 256 µg/mL, 256 µg/mL (≈ 756 µM), 110.9 ± 3.8 µg/mL, 95.7 ± 6.6 µg/mL and 1.6 ± 0.23 µM.
Consider `Cc1cccc(CSc2nn3c(-c4ccccc4)nnc3s2)c1` [Compound 6n, 6-((3-methylbenzyl)thio)-3-phenyl-[1,2,4]triazolo[3,4-b][1,3,4]thiadiazole], for which the results for the “MIC” value (in data set [1]; against Proteus mirabilis) were > 256 µg/mL and 256 µg/mL (≈ 756 µM), respectively. Besides, the entries for the “urease inhibitory activity IC50 (µg/mL) ± SD” value in the data set on C. neoformans (H99) and in the data set on P. mirabilis were 112.3 ± 4.6 µg/mL and 96.8 ± 4.7 µg/mL, respectively. At Jack bean urease (setting [2]), the IC50 was 1.23 ± 0.56 µM.
`CSc1nn2c(-c3ccccc3)nnc2s1` [Compound 6o, 6-(methylthio)-3-phenyl-[1,2,4]triazolo[3,4-b][1,3,4]thiadiazole] had a melting point of 213 to 215 °C.
For the compound `OC(Cn1cncn1)(Cn1cncn1)c1ccc(F)cc1F` [Fluconazole, reference compound], the MIC in data set [1] (read-out: MIC) was 2 µg/mL (≈ 6.53 µM).
For `NC(N)=S` [Thiourea, reference compound], the IC50 on Jack bean urease (setting [2]) was determined as 22.5 ± 2.34 µM.
